Patent publication US10507212B2, “Method for use of homopiperazinium compounds in the treatment of cancer” (UNIVERSITÉ LAVAL, priority 2014, dated 2019)
Structures can show the parent of a compound that is named as a salt. Where two headings read alike, the source gives them in different places. Blank lines part the entries; values can stand above or below the compound they belong to.

How the values were obtained:
[1] = tested on: A549 adenocarcinoma cell line; test: Cell proliferation assay, A549 (MTT); settings: Homo sapiens
Protocol: (§1) In vitro experiments were conducted on four cancer cell lines: the A549 adenocarcinoma cell line, the H520 squamous cell carcinoma the H82 small cell lung carcinoma and Calu 3 lung adenocarcinoma. The A549 tumor cells, were plated at a density of 1.5×10^4 cells per mL and let to adhere on 96-well microplates in F12K cell culture medium enriched with 10% fetal calf serum (FCS). The H520, H82 and Calu 3 tumor cells were plated at a density of 5×10^4 cells per mL in RPMI+10% FCS. After 24 h in culture, the medium was changed and cells were exposed to ASM-024 at concentrations ranging from 10^−7M to 10^−3M (FIGS. 1A-1C). After 3 and 6 days in culture, cell growth was quantified using the MTT colorimetric assay (M2128, Sigma) at 575-690 nm or the Cell Titer fluorescence assay (G8080, Promega) at 560/590 nm.
(§2) In an another set of experiments, a series of 16 other homopiperazinium compounds, in addition to ASM-024, were tested for their anti-proliferative effect on the four tumor cell lines described above after up to 6 days in culture at concentrations of 10^-7M to 10^-3M. (FIGS. 4A-4E) Cell growth was quantified using the MTT colorimetric assay for the A-549, H520 and Calu 3 cell lines and the CellTiter Fluorescence assay.for the H82 tumor cell line These are established method of determining viable cell number in proliferation studies.

[2] = tested on: H520 squamous cell carcinoma; test: Cell proliferation assay, H520 (MTT); format: cell-based; settings: Homo sapiens
Protocol: as §1, §2

[3] = tested on: H82 small cell lung carcinoma; test: Cell proliferation assay, H82 (CellTiter fluorescence); format: cell-based; settings: Homo sapiens; for inhibition at 100 µM / inhibition at 300 µM: read-out: % Inhibition of Cell Growth at day 3 compared to vehicle-treated cells
Protocol: as §1, §2

[4] = tested on: Calu 3 lung adenocarcinoma; test: Cell proliferation assay, Calu 3 (MTT); format: cell-based; settings: Homo sapiens
Protocol: as §1, §2

A549 lung adenocarcinoma = test: In vitro combination treatment with cisplatin or taxol, A549 (MTT); format: cell-based, human; settings: A549, 3 days; increasing concentrations added to suboptimal doses of ASM-024
Protocol: The concomitant effect of ASM-024 and cisplatin or taxol on the proliferation of A549 lung adenocarcinoma and MCF7 breast cancer adenocarcinoma cells was assessed in vitro.
A549 cells (3.0×10^3cells/well) were first cultured with 10% FBS in F12K media and MCF7 cells (10×10^3 cells/well) with 10% FBS in EMEM media for 24 hours to allow cells to adhere to the plate at 37° C. in a humidified incubator with 5% CO2. The next day, the media was replaced in medium containing appropriate drug concentrations […] for an additional 72 hours. Cell viability was quantified using the MTT colorimetric assay (M2128, Sigma) at 575-690 nm.

[5] = tested on: A549 human lung carcinoma cells; test: In vivo antitumor assay, A549 xenograft in Balb/c nude mice (Example 29); settings: day 49; ASM-024 45 mg/kg s.c. daily day 14-38; taxol 10 mg/kg i.p. days 21, 28, 35; cisplatin 2.5 mg/kg i.p. days 28, 35
Protocol: For the in vivo antitumor assay, A549 human lung carcinoma cells (3.5×106) in 50% F12K medium (Matrigel) were implanted subcutaneously in the flank of Balb/c nude mice (nu/nu, Charles River) and allowed to grow for 14 days. ASM-024 was administered daily by subcutaneous delivery at the dose of 45 mg/kg from day 14 to day 38 post cell inoculation. Taxol was administrated intraperitoneally at the dose of 10 mg/kg on days 21, 28 and 35. Cisplatin was administrated intraperioneally at the dose of 2.5 mg/kg on days 28 and 35. From day 14 to day 49, tumor length and width were measured once or twice a week with a caliper and tumor volume calculated according to the formula Volume=(width2×length)/2.

[6] = A549, 72 h, read-out: IC50 Day 3, A549, day 3 in culture
[7] = A549, 144 h, read-out: IC50 Day 6, A549, day 6 in culture
[8] = NCI-H520, 72 h, read-out: IC50 Day 3, H520, day 3 in culture
[9] = NCI-H520, 144 h, read-out: IC50 Day 6, H520, day 6 in culture
[10] = NCI-H520, 72 h, H520, day 3 in culture, read-out: IC50 Day 3
[11] = NCI-H520, 144 h, H520, day 6 in culture, read-out: IC50 Day 6
[12] = NCI-H82, 72 h, H82, day 3 in culture, read-out: IC50 Day 3
[13] = NCI-H82, 144 h, H82, day 6 in culture, read-out: IC50 Day 6
[14] = 72 h, Calu 3, day 3 in culture, read-out: IC50 Day 3
[15] = 144 h, Calu 3, day 6 in culture, read-out: IC50 Day 6

Structure (SMILES): C[N+]1(C)CCCN(c2ccccc2)CC1.[I-] [ASM-002, 1,1-dimethyl-4-phenylhomopiperazinium iodide]
IC50 [1, 6]: 40 ± 15 µM | IC50 [1, 7]: 38 ± 12 µM | IC50 [2, 8]: 323 ± 60 µM | IC50 [2, 9]: 170 ± 23 µM | inhibition at 100 µM ([3]; NCI-H82, 72 h): -15% | inhibition at 300 µM ([3]; NCI-H82, 72 h): 31% | melting point: 158 to 160 °C

Structure (SMILES): CC[N+]1(CC)CCCN(c2ccc(O)cc2)CC1 (as salt: tosylate) [ASM-073, 1,1-Diethyl-4-(phenyl-4-hydroxy)-homopiperazinium tosylate]
melting point: 144 to 145.5 °C

Structure (SMILES): Cc1cccc(N2CCC[N+](C)(C)CC2)c1 [ASM-068, 4-Dimethyl-1-(3-methylphenyl)-homopiperazinium Tosylate]
IC50 [1, 6]: 36 ± 17 µM | IC50 [1, 7]: 20 ± 16 µM | IC50 [2, 8]: 580 ± 85 µM | IC50 [2, 9]: 233 ± 31 µM | IC50 ([3]; NCI-H82, 72 h, read-out: IC50 Day 3): 298 µM | IC50 ([3]; NCI-H82, 144 h, read-out: IC50 Day 6): 179 µM | IC50 ([4]; Calu-3, 72 h, read-out: IC50 Day 3): > 1000 µM | IC50 ([4]; Calu-3, 144 h, read-out: IC50 Day 6): 52 µM

Structure (SMILES): C[N+]1(C)CCCN(c2ccc(C(F)(F)F)cc2)CC1 (as salt: iodide) [ASM-071, 4-Dimethyl-1-(4-trifluorophenyl)-homopiperazinium Iodide]
melting point: 224.3 to 225.4 °C

Structure (SMILES): CC(=O)O[C@H]1C(=O)[C@@]2(C)[C@H]([C@H](OC(=O)c3ccccc3)[C@]3(O)C[C@H](OC(=O)[C@H](O)[C@@H](NC(=O)c4ccccc4)c4ccccc4)C(C)=C1C3(C)C)[C@]1(OC(C)=O)CO[C@@H]1C[C@@H]2O [taxol, Paclitaxel]
inhibition of in vitro proliferation, combination (A549 lung adenocarcinoma): potentiated the inhibition of in vitro proliferation | A549 human carcinoma tumor growth (tumor volume) [5]: decrease in A549 human carcinoma tumor growth

IC50 [1, 6]: 81 ± 74 µM | IC50 [1, 7]: 42 ± 34 µM | IC50 [2, 10]: > 700 µM | IC50 [2, 11]: 288 ± 61 µM | IC50 [3, 12]: 331 µM | IC50 [3, 13]: 252 µM | IC50 [4, 14]: 452 µM | IC50 [4, 15]: 109 µM
Structure (SMILES): CC[N+]1(CC)CCCN(c2ccc(F)cc2)CC1 [ASM-049, 1,1-Diethyl-4-(4-fluorophenyl)-homopiperazinium Tosylate]

IC50 [1, 6]: 37 µM | IC50 [1, 7]: 15 µM | IC50 [2, 10]: 322 µM | IC50 [2, 11]: 169 µM | IC50 [3, 12]: 246 µM | IC50 [3, 13]: 176 µM | IC50 [4, 14]: 276 µM | IC50 [4, 15]: 86 µM
Structure (SMILES): CC[N+]1(CC)CCCN(c2ccc(Cl)cc2)CC1 [ASM-048, 1,1-Diethyl-4-(4-chlorophenyl)-homopiperazinium Tosylate]

Structure (SMILES): C[N+]1(C)CCCN(c2ccc(C(F)(F)F)cc2)CC1 (as salt: tosylate) [ASM-058, 1,1-Dimethyl-4-(4-trifluoromethylphenyl)-homopiperazinium Tosylate]
melting point: 212.6 to 213.4 °C

melting point: 167.5 to 168.7 °C
Structure (SMILES): CC[N+]1(C)CCCN(c2ccccc2)CC1.[I-] (stereo not shown) (hydrate or solvate) [ASM-055, 1-Ethyl-1-Methyl-4-(phenyl)-homopiperazinium Tosylate]

Structure (SMILES): N.N.[Cl][Pt][Cl] [Cisplatin]
inhibition of in vitro proliferation, combination (A549 lung adenocarcinoma): potentiated the inhibition of in vitro proliferation | A549 human carcinoma tumor growth (tumor volume) [5]: decrease in A549 human carcinoma tumor growth

Structure (SMILES): Cc1cccc(N2CCC[N+](C)(C)CC2)c1 (as salt: tosylate) [ASM-068, 4-Dimethyl-1-(3-methylphenyl)-homopiperazinium Tosylate]
melting point: 161.6 to 162.5 °C

Structure (SMILES): CC[N+]1(CC)CCCN(c2ccc(O)cc2)CC1 [ASM-073, 1,1-Diethyl-4-(phenyl-4-hydroxy)-homopiperazinium tosylate]
IC50 [1, 6]: 119 ± 49 µM | IC50 [1, 7]: 161 ± 82 µM | IC50 [2, 8]: 187 ± 28 µM | IC50 [2, 9]: 148 ± 14 µM | inhibition at 100 µM ([3]; NCI-H82, 72 h): 100% | inhibition at 300 µM ([3]; NCI-H82, 72 h): 100%
